Article PMC10967822, “Antimicrobial Indole-3-Carboxamido-Polyamine Conjugates Target Bacterial Membranes and Are Antibiotic Potentiators” (Biomolecules, 2024)
Values after ≈ are worked out from the molar mass of the structure shown.

How the values were obtained:
[1] = Cytotoxicity assay (resazurin); format: cell-based; conditions: human, HEK293 cells, mean n = 2
S. aureus ATCC 25923 = test: MIC, broth dilution, S. aureus; format: cell-based, Staphylococcus aureus; conditions: Staphylococcus aureus, ATCC25923; S. aureus ATCC 25923, 18 h; read-out: MIC Sa
[2] = system: C. neoformans ATCC 208821; test: Antifungal MIC (CO-ADD), C. neoformans; format: cell-based; conditions: Cryptococcus neoformans, ATCC208821, top dose 32 µg/mL
Method: (§1) For the antifungal assay, fungi strains were cultured for 3 days on YPD agar at 30 °C. A yeast suspension of 1 × 10^6 to 5 × 10^6 CFU/mL was prepared from five colonies. These stock suspensions were diluted with a yeast nitrogen base (YNB) (Becton Dickinson, 233520, New South Wales, Australia) broth to a final concentration of 2.5 × 10^3 CFU/mL. […] The plates were covered and incubated at 35 °C for 36 h without shaking. C. albicans MICs were determined by measuring the absorbance at OD530. For C. neoformans, resazurin was added at a 0.006% final concentration to each well and incubated for a further 3 h before the MICs were determined by measuring the absorbance at OD570–600. […] Fluconazole was used as a positive fungal inhibitor standard for C. albicans and C. neoformans. […] The quality control (QC) of the assays was determined by the antimicrobial controls and the Z′-factor (using positive and negative controls).

E. coli ATCC 25922 [3] = test: Erythromycin potentiation against E. coli; format: cell-based, Escherichia coli; conditions: erythromycin at 2 µg/mL (2.7 µM); for Erythro/Ec fold-change (intrinsic MIC / combination MIC): E. coli; for Erythro/Ec: concentration required to restore erythromycin activity (combination MIC): mean n = 3
From the text: (§2) These measurements were independently repeated in triplicate.

C. albicans ATCC 90028 = test: Antifungal MIC (CO-ADD), C. albicans; format: cell-based; conditions: Candida albicans, ATCC90028, top dose 32 µg/mL
Method: as §1

P. aeruginosa ATCC 27853 [4] = test: MIC, broth dilution, P. aeruginosa; format: cell-based, Pseudomonas aeruginosa; conditions: Pseudomonas aeruginosa, ATCC27853; P. aeruginosa ATCC 27853, 18 h; read-out: MIC Pa
MRSA ATCC 43300 = test: MIC, broth microdilution (CO-ADD), MRSA; format: cell-based, methicillin-resistant S. aureus; conditions: Staphylococcus aureus; MRSA ATCC 43300; top dose 32 µg/mL; read-out: MIC MRSA
E. coli ATCC 25922 [5] = test: MIC, broth dilution, E. coli; format: cell-based, Escherichia coli; conditions: Escherichia coli, ATCC25922; E. coli ATCC 25922, 18 h
A. baumannii ATCC 19606 = test: MIC, broth microdilution (CO-ADD), A. baumannii; format: cell-based, Acinetobacter baumannii; conditions: Acinetobacter baumannii, ATCC19606, top dose 32 µg/mL
human red blood cells = test: Hemolytic assay; format: cell-based; conditions: 10% hemolytic activity, mean n = 2
Method: Human whole blood was washed three times with three volumes of 0.9% NaCl and then resuspended in the same solution to a concentration of 0.5 × 10^8 cells/mL, as determined by the manual cell count in a Neubauer hemocytometer. The washed cells were then added to the 384-well compound-containing plates for a final volume of 50 μL. After a 10 min shake on a plate shaker, the plates were then incubated for 1 h at 37 °C. After incubation, the plates were centrifuged at 1000× g for 10 min to pellet cells and debris; 25 μL of the supernatant was then transferred to a polystyrene 384-well assay plate. Hemolysis was determined by measuring the supernatant absorbance at […] (OD405). The absorbance was measured using a Tecan M1000 Pro monochromator plate reader. HC10 and HC50 (concentrations at 10% and 50% hemolysis, respectively) were calculated by a curve fitting the inhibition values vs. log (concentration) using a sigmoidal dose–response function with variable fitting values for the top, bottom, and slope.

[6] = system: K. pneumoniae ATCC 700603; test: MIC, broth microdilution (CO-ADD), K. pneumoniae; conditions: top dose 32 µg/mL
P. aeruginosa ATCC 27853 [7] = test: Doxycycline potentiation against P. aeruginosa; format: cell-based, Pseudomonas aeruginosa; conditions: doxycycline at 2 µg/mL (4.5 µM); for Dox/Pa fold-change (intrinsic MIC / combination MIC): P. aeruginosa ATCC 27853; for Dox/Pa: concentration required to restore doxycycline activity (combination MIC): P. aeruginosa ATCC 27853, mean n = 3
From the text: as §2

Compound	IC50 at 20 h [1] [µM]	MIC (S. aureus ATCC 25923) [µM]	MIC [2] [µM]	Erythro/Ec fold-change (intrinsic MIC / combination MIC) (E. coli ATCC 25922 [3]) [fold]	Erythro/Ec: concentration required to restore erythromycin activity (combination MIC) (E. coli ATCC 25922 [3]) [µM]	MIC (C. albicans ATCC 90028) [µM]	MIC (P. aeruginosa ATCC 27853 [4]) [µM]	MIC (MRSA ATCC 43300) [µM]	MIC (E. coli ATCC 25922 [5]) [µM]	MIC (A. baumannii ATCC 19606) [µM]	Hemolysis HC10 (human red blood cells) [µM]	MIC Kp [6] [µM]	Dox/Pa fold-change (intrinsic MIC / combination MIC) (P. aeruginosa ATCC 27853 [7]) [fold]	Dox/Pa: concentration required to restore doxycycline activity (combination MIC) (P. aeruginosa ATCC 27853 [7]) [µM]
COc1ccc2[nH]cc(C(=O)NCCCNCCCCCCCCCCCCNCCCNC(=O)c3c[nH]c4ccc(OC)cc34)c2c1.O=C(O)C(F)(F)F.O=C(O)C(F)(F)F [Compound 14f]	> 36	3.52	≤ 0.28	1	14.1	≤ 0.28	112	≤ 0.28	14.1	> 36	>36	>36	2	56.2
Cc1ccc2[nH]cc(C(=O)NCCCNCCCCNCCCNC(=O)c3c[nH]c4ccc(C)cc34)c2c1 [Compound 15a]	> 43	67.1 (≈ 34.7 µg/mL)	≤ 0.34	> 4	67.1	> 43	> 269	≤ 0.34	> 269	> 43	>43	>43	> 8	33.6
Cc1ccc2[nH]cc(C(=O)NCCCNCCCCCCNCCCNC(=O)c3c[nH]c4ccc(C)cc34)c2c1 [Compound 15b]	> 41	259 (≈ 141 µg/mL)	≤ 0.32	4	32.4	> 41	> 259	5.18 (≈ 2.82 µg/mL)	129 (≈ 70.3 µg/mL)	> 41	>41	>41	> 8	32.4
Cc1ccc2[nH]cc(C(=O)NCCCNCCCCCCCNCCCNC(=O)c3c[nH]c4ccc(C)cc34)c2c1 [Compound 15c]	> 41	63.5 (≈ 35.5 µg/mL)	≤ 0.32	4	63.5	> 41	> 254	≤ 0.32	254 (≈ 142 µg/mL)	> 41	>41	>41	> 4	63.5
Cc1ccc2[nH]cc(C(=O)NCCCNCCCCCCCCNCCCNC(=O)c3c[nH]c4ccc(C)cc34)c2c1 [Compound 15d]	> 40	31.2 (≈ 17.9 µg/mL)	≤ 0.31	4	31.2	> 40	250 (≈ 143 µg/mL)	≤ 0.31	125 (≈ 71.6 µg/mL)	> 40	>40	>40	8	31.2
Cc1ccc2[nH]cc(C(=O)NCCCNCCCCCCCCCCNCCCNC(=O)c3c[nH]c4ccc(C)cc34)c2c1 [Compound 15e]	> 39	3.77 (≈ 2.27 µg/mL)	≤ 0.3	4	7.54	≤ 0.3	60.3 (≈ 36.2 µg/mL)	≤ 0.3	30.2 (≈ 18.1 µg/mL)	19.3 (≈ 11.6 µg/mL)	>39	>39	4	15.1
